In patent US9771369B2, “Compounds and methods for kinase modulation, and indications therefor” (Plexxikon Inc., priority 2014, dated 2017):

Key:
[1] = tested on: BaF3-FL KIT D816V or BaF3-FL KIT V560G/D816V cell line; test: Cell-based assays of c-Kit mutant kinase activity (cell proliferation, ATPlite); conditions: at least one of the c-kit cell assays of Example 7
In short: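 BaF3 cells dependent on transfected full-length human KIT D816V or V560G/D816V (pCI-Neo, CMV promoter) were seeded at 1×10^4 cells/well and exposed to 8-point 1:3 dilutions from 10 μM top (0.2% DMSO) for three days at 37° C. ATPlite luminescence gave cell number; IC50 from concentration-response.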

c-kit mutant D816V = c-kit mutant D816V (Homo sapiens (Human), UniProt P10721, D816V/DEL694-753); test: c-Kit mutant D816V biochemical assay (AlphaScreen kinase activity)
Sequence of c-kit mutant D816V (P10721 other isoform, or with tags, fused parts or gaps D816V/del 694-753): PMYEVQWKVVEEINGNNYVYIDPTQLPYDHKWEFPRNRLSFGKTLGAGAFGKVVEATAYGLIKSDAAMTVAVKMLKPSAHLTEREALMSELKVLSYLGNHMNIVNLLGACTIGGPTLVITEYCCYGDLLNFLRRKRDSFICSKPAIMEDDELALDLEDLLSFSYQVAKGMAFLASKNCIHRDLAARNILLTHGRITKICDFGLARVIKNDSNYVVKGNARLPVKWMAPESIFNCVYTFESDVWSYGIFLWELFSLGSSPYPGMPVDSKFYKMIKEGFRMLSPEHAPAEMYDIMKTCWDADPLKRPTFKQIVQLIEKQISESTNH
In short: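 Recombinant His-tagged c-Kit D816V kinase domain (residues 551-934, insert 694-753 deleted, E. coli-expressed) phosphorylating 30 nM biotin-(E4Y)10 with 10 μM ATP, HEPES pH 7.2, Mg/Mn, 5% DMSO; 30 min, room temperature. Phosphorylation detected by AlphaScreen (streptavidin donor/PY30 acceptor beads); IC50 from 8-point 1:3 series.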

SMILES | IC50 [1] [nM] | IC50 (c-kit mutant D816V) [µM]
COc1ccc(-c2[nH]c(C3(C)CCN(c4ncnc5[nH]c(-c6ccc(C#N)cc6)cc45)CC3)nc2C)cc1 [P-3043, 4-[4-[4-[5-(4-methoxyphenyl)-4-methyl-1H-imidazol-2-yl]-4-methyl-1-piperidyl]-7H-pyrrolo[2,3-d]pyrimidin-6-yl]benzonitrile] | < 10000 | 0.0001 to 1
Cc1nc(C2CCN(c3ncnc4[nH]c(-c5ccc(C(N)=O)cc5)cc34)CC2)[nH]c1-c1ccccc1 [P-3044, 4-[4-[4-(4-methyl-5-phenyl-1H-imidazol-2-yl)-1-piperidyl]-7H-pyrrolo[2,3-d]pyrimidin-6-yl]benzamide] | < 10000 | 0.0001 to 1
COc1ncc(-c2cc3c(N4CCC(c5nc(C)c(-c6ccccc6)[nH]5)CC4)ncnc3[nH]2)cn1 [P-3045, 6-(2-methoxypyrimidin-5-yl)-4-[4-(4-methyl-5-phenyl-1H-imidazol-2-yl)-1-piperidyl]-7H-pyrrolo[2,3-d]pyrimidine] | < 10000 | 0.0001 to 1
Cc1nc(C2CCN(c3ncnc4[nH]c(-c5cnn(C)c5)cc34)CC2)[nH]c1-c1ccccc1 [P-3046, 4-[4-(4-methyl-5-phenyl-1H-imidazol-2-yl)-1-piperidyl]-6-(1-methylpyrazol-4-yl)-7H-pyrrolo[2,3-d]pyrimidine] | < 10000 | 0.0001 to 1
Cc1nc(C2CCN(c3ncnc4[nH]c(-c5ccc(C#N)cc5)cc34)CC2)[nH]c1-c1ccccc1 [P-3047, 4-[4-[4-(4-methyl-5-phenyl-1H-imidazol-2-yl)-1-piperidyl]-7H-pyrrolo[2,3-d]pyrimidin-6-yl]benzonitrile] | < 10000 | 0.0001 to 1
Cc1nc(C2CCN(c3ncnc4[nH]c(-c5ccc(S(N)(=O)=O)cc5)cc34)CC2)[nH]c1-c1ccccc1 [P-3048, 4-[4-[4-(4-methyl-5-phenyl-1H-imidazol-2-yl)-1-piperidyl]-7H-pyrrolo[2,3-d]pyrimidin-6-yl]benzenesulfonamide] | < 10000 | 0.0001 to 1
CNC(=O)c1cccc(-c2cc3c(N4CCC(c5nc(C)c(-c6ccccc6)[nH]5)CC4)ncnc3[nH]2)c1 [P-3049, N-methyl-3-[4-[4-(4-methyl-5-phenyl-1H-imidazol-2-yl)-1-piperidyl]-7H-pyrrolo[2,3-d]pyrimidin-6-yl]benzamide] | < 10000 | 0.0001 to 1
Cc1nc(C2CCN(c3ncnc4[nH]c(-c5cnn(C(F)F)c5)cc34)CC2)[nH]c1-c1ccccc1 [P-3050, 6-[1-(difluoromethyl)pyrazol-4-yl]-4-[4-(4-methyl-5-phenyl-1H-imidazol-2-yl)-1-piperidyl]-7H-pyrrolo[2,3-d]pyrimidine] | < 10000 | 0.0001 to 1
Cc1nc(C2CCN(c3ncnc4[nH]c(-c5cccc(S(N)(=O)=O)c5)cc34)CC2)[nH]c1-c1ccccc1 [P-3051, 3-[4-[4-(4-methyl-5-phenyl-1H-imidazol-2-yl)-1-piperidyl]-7H-pyrrolo[2,3-d]pyrimidin-6-yl]benzenesulfonamide] | < 10000 | 0.0001 to 1
COc1ccc(-c2[nH]c(C3(C)CCN(c4ncnc5[nH]c(-c6ccc(F)cc6)cc45)CC3)nc2C)cc1C [P-3052, 6-(4-fluorophenyl)-4-[4-[5-(4-methoxy-3-methyl-phenyl)-4-methyl-1H-imidazol-2-yl]-4-methyl-1-piperidyl]-7H-pyrrolo[2,3-d]pyrimidine] | < 10000 | 0.0001 to 1
COc1ccc(-c2[nH]c(C3(C)CCN(c4ncnc5[nH]c(-c6ccc(C#N)cc6)cc45)CC3)nc2C)cc1C [P-3053, 4-[4-[4-[5-(4-methoxy-3-methyl-phenyl)-4-methyl-1H-imidazol-2-yl]-4-methyl-1-piperidyl]-7H-pyrrolo[2,3-d]pyrimidin-6-yl]benzonitrile] | < 10000 | 0.0001 to 1
COc1cc(-c2cc3c(N4CCC(C)(c5nc(C)c(-c6ccc(OC)c(C)c6)[nH]5)CC4)ncnc3[nH]2)ccn1 [P-3054, 4-[4-[5-(4-methoxy-3-methyl-phenyl)-4-methyl-1H-imidazol-2-yl]-4-methyl-1-piperidyl]-6-(2-methoxy-4-pyridyl)-7H-pyrrolo[2,3-d]pyrimidine] | < 10000 | 0.0001 to 1
CCC1(c2nc(C)c(-c3ccc(OC)cc3)[nH]2)CCN(c2ncnc3[nH]c(-c4ccc(F)cc4)cc23)CC1 [P-3055, 4-[4-ethyl-4-[5-(4-methoxyphenyl)-4-methyl-1H-imidazol-2-yl]-1-piperidyl]-6-(4-fluorophenyl)-7H-pyrrolo[2,3-d]pyrimidine] | < 10000 | 0.0001 to 1
CCC1(c2nc(C)c(-c3ccc(OC)c(C)c3)[nH]2)CCN(c2ncnc3[nH]c(-c4ccc(F)cc4)cc23)CC1 [P-3056, 4-[4-ethyl-4-[5-(4-methoxy-3-methyl-phenyl)-4-methyl-1H-imidazol-2-yl]-1-piperidyl]-6-(4-fluorophenyl)-7H-pyrrolo[2,3-d]pyrimidine] | < 10000 | 0.0001 to 1
Cc1nc(C2(C)CCN(c3ncnc4[nH]c(-c5ccc(F)cc5)cc34)CC2)[nH]c1-c1ccc(F)cc1 [P-3057, 6-(4-fluorophenyl)-4-[4-[5-(4-fluorophenyl)-4-methyl-1H-imidazol-2-yl]-4-methyl-1-piperidyl]-7H-pyrrolo[2,3-d]pyrimidine] | < 10000 | 0.0001 to 1
Cc1nc(C2(C)CCN(c3ncnc4[nH]c(-c5ccc(F)cc5)cc34)CC2)[nH]c1-c1ccc(Cl)cc1 [P-3058, 4-[4-[5-(4-chlorophenyl)-4-methyl-1H-imidazol-2-yl]-4-methyl-1-piperidyl]-6-(4-fluorophenyl)-7H-pyrrolo[2,3-d]pyrimidine] | < 10000 | 0.0001 to 1
CCc1ccc(-c2[nH]c(C3CCN(c4ncnc5[nH]c(-c6ccnc(OC)c6)cc45)CC3)nc2C)cc1 [P-3059, 4-[4-[5-(4-ethylphenyl)-4-methyl-1H-imidazol-2-yl]-1-piperidyl]-6-(2-methoxy-4-pyridyl)-7H-pyrrolo[2,3-d]pyrimidine] | < 10000 | 0.0001 to 1
CCc1ccc(-c2[nH]c(C3CCN(c4ncnc5[nH]c(-c6ccc(F)cc6)cc45)CC3)nc2C)cc1 [P-3060, 4-[4-[5-(4-ethylphenyl)-4-methyl-1H-imidazol-2-yl]-1-piperidyl]-6-(4-fluorophenyl)-7H-pyrrolo[2,3-d]pyrimidine] | < 10000 | 0.0001 to 1
CCc1ccc(-c2[nH]c(C3CCN(c4ncnc5[nH]c(-c6ccc(C#N)cc6)cc45)CC3)nc2C)cc1 [P-3061, 4-[4-[4-[5-(4-ethylphenyl)-4-methyl-1H-imidazol-2-yl]-1-piperidyl]-7H-pyrrolo[2,3-d]pyrimidin-6-yl]benzonitrile] | < 10000 | 0.0001 to 1
Cc1ccc(-c2[nH]c(C3CCN(c4ncnc5[nH]c(-c6ccc(F)cc6)cc45)CC3)nc2C)cc1 [P-3062, 6-(4-fluorophenyl)-4-[4-[4-methyl-5-(p-tolyl)-1H-imidazol-2-yl]-1-piperidyl]-7H-pyrrolo[2,3-d]pyrimidine] | < 10000 | 0.0001 to 1
COc1ccc(-c2[nH]c(C3(C)CCN(c4ncnc5[nH]c(C)cc45)CC3)nc2C)cc1 [P-3063, 4-[4-[5-(4-methoxyphenyl)-4-methyl-1H-imidazol-2-yl]-4-methyl-1-piperidyl]-6-methyl-7H-pyrrolo[2,3-d]pyrimidine] | < 10000 | 0.0001 to 1
Cc1cc2c(N3CCC(C)(c4nc(C)c(-c5ccc(F)cc5)[nH]4)CC3)ncnc2[nH]1 [P-3064, 4-[4-[5-(4-fluorophenyl)-4-methyl-1H-imidazol-2-yl]-4-methyl-1-piperidyl]-6-methyl-7H-pyrrolo[2,3-d]pyrimidine] | < 10000 | 0.0001 to 1
CCOc1ccc(-c2[nH]c(C3CCN(c4ncnc5[nH]c(-c6ccc(F)cc6)cc45)CC3)nc2C)cc1C [P-3065, 4-[4-[5-(4-ethoxy-3-methyl-phenyl)-4-methyl-1H-imidazol-2-yl]-1-piperidyl]-6-(4-fluorophenyl)-7H-pyrrolo[2,3-d]pyrimidine] | < 10000 | 0.0001 to 1
CCOc1ccc(-c2[nH]c(C3CCN(c4ncnc5[nH]c(-c6ccc(C#N)cc6)cc45)CC3)nc2C)cc1C [P-3066, 4-[4-[4-[5-(4-ethoxy-3-methyl-phenyl)-4-methyl-1H-imidazol-2-yl]-1-piperidyl]-7H-pyrrolo[2,3-d]pyrimidin-6-yl]benzonitrile] | < 10000 | 0.0001 to 1
CCOc1ccc(-c2[nH]c(C3CCN(c4ncnc5[nH]c(-c6ccnc(OC)c6)cc45)CC3)nc2C)cc1C [P-3067, 4-[4-[5-(4-ethoxy-3-methyl-phenyl)-4-methyl-1H-imidazol-2-yl]-1-piperidyl]-6-(2-methoxy-4-pyridyl)-7H-pyrrolo[2,3-d]pyrimidine] | < 10000 | 0.0001 to 1
Cc1nc(C2CCN(c3ncnc4[nH]c(-c5ccc(F)cc5)cc34)CC2)[nH]c1-c1ccc2c(c1)OCO2 [P-3068, 4-[4-[5-(1,3-benzodioxol-5-yl)-4-methyl-1H-imidazol-2-yl]-1-piperidyl]-6-(4-fluorophenyl)-7H-pyrrolo[2,3-d]pyrimidine] | < 10000 | 0.0001 to 1
Cc1nc(C2CCN(c3ncnc4[nH]c(-c5ccc(C#N)cc5)cc34)CC2)[nH]c1-c1ccc2c(c1)OCO2 [P-3069, 4-[4-[4-[5-(1,3-benzodioxol-5-yl)-4-methyl-1H-imidazol-2-yl]-1-piperidyl]-7H-pyrrolo[2,3-d]pyrimidin-6-yl]benzonitrile] | < 10000 | 0.0001 to 1
COc1cc(-c2cc3c(N4CCC(c5nc(C)c(-c6ccc7c(c6)OCO7)[nH]5)CC4)ncnc3[nH]2)ccn1 [P-3070, 4-[4-[5-(1,3-benzodioxol-5-yl)-4-methyl-1H-imidazol-2-yl]-1-piperidyl]-6-(2-methoxy-4-pyridyl)-7H-pyrrolo[2,3-d]pyrimidine] | < 10000 | 0.0001 to 1
